Results taken from patent US20060134022A1, “Salivary stimulatory compositions and method of use thereof” (priority 2004, published 2006).

Assay: Self warming mouthwash temperature increase vs. sulfite concentration on mixing sulfite phase with peroxide phase
Format: physicochemical
Conditions: approximate (plus/minus 2 degrees)
From the text: The saliva stimulation effectiveness of the solution depends on raising its temperature before use. This may be done by conventional external heating means. Alternatively the sulfate, bisulfate or pyrosulfate may be produced in situ by utilizing a solution of the corresponding sulfite, bisulfite or metabisulfite and adding a solution of an orally acceptable peroxide thereto. The resulting reaction produces excess heat, thus raising the solution temperature. While the amount of peroxide added is not critical, it is desirable to use at least an amount substantially equivalent to the stoichiometric amount need to oxidize the salts in their reduced forms to the higher oxidation state.
Note: Temperatures are in Fahrenheit Degrees and are approximate (plus/minus 2 degrees).
Sulfite Concentrations listed below are final concentration in the mouthwash. Since the final mouthwash is formed from equal amounts of 2 separate phases, the sulfite concentration in the sulfite containing phase is double that in the final mouthwash.
Combine equal amounts of Phase A and Phase B, Just prior to use, to form the final mouth rinse

[1] = 1% final concentration in the mouthwash
[2] = 2% final concentration in the mouthwash
[3] = 4% final concentration in the mouthwash

For `O=S([O-])S(=O)(=O)[O-].[Na+].[Na+]` [Sodium Metabisulfite], the “Final Temp.” value [1] was 97.3 Fahrenheit Degrees, the “Temp. Increase” value [1] was 12.1 Fahrenheit Degrees and the “Final Temp.” value [2] was 113.2 Fahrenheit Degrees. The “Temp. Increase” value [2] was 27.2 Fahrenheit Degrees, the “Final Temp.” value [3] was 142.0 Fahrenheit Degrees and the “Temp. Increase” value [3] was 55.9 Fahrenheit Degrees.
In the case of `O=S([O-])[O-].[Na+].[Na+]` [Sodium Sulfite], the “Final Temp.” value [1] is reported as 98.1 Fahrenheit Degrees, the “Temp. Increase” value [1] is reported as 10.2 Fahrenheit Degrees and the “Final Temp.” value [2] is reported as 110.7 Fahrenheit Degrees. For the same molecule, the “Temp. Increase” value [2] was 21.4 Fahrenheit Degrees, the “Final Temp.” value [3] was 133.5 Fahrenheit Degrees and the “Temp. Increase” value [3] was 43.0 Fahrenheit Degrees.
